Measurements reported in ChEMBL document CHEMBL4476867, “Hydroxy formamide derivatives and their use” (2016).

Key:
[1] = Reduction in PICP levels in human cardiac fibroblasts incubated for 24 to 48 hrs by ELISA; assay type: functional
Summary of the method: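 Human cardiac fibroblasts at passage 6 or below were plated in 96-well plates at 10,000 to 15,000 cells per well. On the following day, cells were treated for 24 to 48 hr at 37° C in ficoll crowding EMEM containing 100 μM ascorbic acid, with DMSO kept under 0.3%. A Quidel ELISA measured procollagen I C-terminal propeptide released into the medium, and IC50 values were derived in GraphPad Prism by fitting levels, expressed relative to untreated controls, to a log(inhibitor)-response equation.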

[2] = molecular target: T1, Tolloid-like protein 2 (Homo sapiens, UniProt Q9Y6L7); experiment: Inhibition of C-terminal Avi-6x-His epitope tagged and N-terminal human RAGE signal sequence tagged recombinant human TLL2 (26 to 1015 amino acids) expressed in CHOE1A cells incubated for 60 mins with promyostatin peptide substrate by FRET based assay; assay type: cell-based
T1 sequence (Q9Y6L7 whole entry): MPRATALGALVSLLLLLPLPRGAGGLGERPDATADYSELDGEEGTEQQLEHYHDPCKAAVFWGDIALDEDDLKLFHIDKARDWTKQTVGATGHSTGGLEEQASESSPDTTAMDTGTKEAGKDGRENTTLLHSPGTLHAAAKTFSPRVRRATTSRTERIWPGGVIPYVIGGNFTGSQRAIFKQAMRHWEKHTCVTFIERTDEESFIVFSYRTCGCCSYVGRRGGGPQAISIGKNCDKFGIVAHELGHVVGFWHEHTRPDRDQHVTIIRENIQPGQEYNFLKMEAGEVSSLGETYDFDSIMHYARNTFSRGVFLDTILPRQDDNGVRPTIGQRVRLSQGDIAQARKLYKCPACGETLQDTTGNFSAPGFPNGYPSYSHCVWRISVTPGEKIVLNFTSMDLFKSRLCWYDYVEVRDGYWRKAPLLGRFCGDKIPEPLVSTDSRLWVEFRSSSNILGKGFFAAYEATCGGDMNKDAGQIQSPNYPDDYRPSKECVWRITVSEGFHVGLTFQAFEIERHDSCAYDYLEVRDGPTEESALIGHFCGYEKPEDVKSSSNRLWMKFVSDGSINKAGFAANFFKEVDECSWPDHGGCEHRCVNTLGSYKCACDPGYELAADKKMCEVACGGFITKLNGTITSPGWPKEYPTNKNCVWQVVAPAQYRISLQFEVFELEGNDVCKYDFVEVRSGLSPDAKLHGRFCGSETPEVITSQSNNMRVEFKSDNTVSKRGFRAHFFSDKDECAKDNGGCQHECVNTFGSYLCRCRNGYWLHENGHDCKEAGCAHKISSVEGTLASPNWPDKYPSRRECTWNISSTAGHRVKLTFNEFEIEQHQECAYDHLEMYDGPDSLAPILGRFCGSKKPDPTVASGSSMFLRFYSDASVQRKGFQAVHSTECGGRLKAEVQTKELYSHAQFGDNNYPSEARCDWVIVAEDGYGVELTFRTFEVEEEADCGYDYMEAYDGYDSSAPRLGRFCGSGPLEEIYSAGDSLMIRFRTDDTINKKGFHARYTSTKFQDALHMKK

[3] = molecular target: T2, Bone morphogenetic protein 1 (Homo sapiens, UniProt P13497); experiment: Inhibition of C-terminal FLAG-6x-His epitope tagged and N-terminal human RAGE signal sequence tagged human BMP1 (23 to 721 amino acids) expressed in CHO-E1 cells pre-incubated for 10 mins before promyostatin peptide substrate addition and measured after 60 mins using 0.5 nM BMP1 by FRET based assay; assay type: cell-based
T2 sequence (P13497 whole entry): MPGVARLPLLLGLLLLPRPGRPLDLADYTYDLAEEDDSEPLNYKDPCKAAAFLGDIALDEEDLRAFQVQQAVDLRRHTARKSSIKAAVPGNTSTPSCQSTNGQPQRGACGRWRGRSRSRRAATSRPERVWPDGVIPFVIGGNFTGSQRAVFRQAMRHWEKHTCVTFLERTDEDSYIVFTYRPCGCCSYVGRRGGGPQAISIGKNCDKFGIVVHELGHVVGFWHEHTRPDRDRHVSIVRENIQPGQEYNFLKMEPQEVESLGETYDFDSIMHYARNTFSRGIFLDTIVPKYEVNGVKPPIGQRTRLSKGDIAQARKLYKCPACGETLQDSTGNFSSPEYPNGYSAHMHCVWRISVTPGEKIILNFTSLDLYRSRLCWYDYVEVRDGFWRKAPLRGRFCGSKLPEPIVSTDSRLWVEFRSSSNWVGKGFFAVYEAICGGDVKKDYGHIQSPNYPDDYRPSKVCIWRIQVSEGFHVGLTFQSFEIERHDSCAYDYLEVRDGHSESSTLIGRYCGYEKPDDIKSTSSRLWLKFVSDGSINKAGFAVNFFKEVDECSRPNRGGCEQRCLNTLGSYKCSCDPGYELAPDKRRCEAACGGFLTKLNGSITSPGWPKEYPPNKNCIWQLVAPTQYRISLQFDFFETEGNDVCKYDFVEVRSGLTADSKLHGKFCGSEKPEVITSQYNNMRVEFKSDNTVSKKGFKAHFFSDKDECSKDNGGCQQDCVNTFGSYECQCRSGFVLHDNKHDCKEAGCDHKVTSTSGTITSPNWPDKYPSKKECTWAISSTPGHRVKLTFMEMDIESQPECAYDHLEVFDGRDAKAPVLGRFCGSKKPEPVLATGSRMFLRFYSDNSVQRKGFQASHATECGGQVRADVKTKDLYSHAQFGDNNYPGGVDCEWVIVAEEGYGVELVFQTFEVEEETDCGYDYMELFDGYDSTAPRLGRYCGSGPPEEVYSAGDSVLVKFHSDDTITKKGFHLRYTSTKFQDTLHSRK

[4] = molecular target: T2, Bone morphogenetic protein 1; experiment: Inhibition of C-terminal FLAG-6x-His epitope tagged and N-terminal human RAGE signal sequence tagged human BMP1 (23 to 721 amino acids) expressed in CHO-E1 cells pre-incubated for 10 mins before promyostatin peptide substrate addition and measured after 30 mins using 50 nM BMP1 by FRET based assay; assay type: cell-based
[5] = molecular target: Tolloid-like protein 1 (Homo sapiens, UniProt O43897, I156V/N221S/V284A); experiment: Inhibition of recombinant human TLL1 I156V/N221S/V284A mutant expressed in CHOE1A cells pre-incubated for 10 mins before promyostatin peptide substrate addition and measured after 60 mins by FRET based assay; assay type: cell-based
Sequence of Tolloid-like protein 1 (O43897 148-1013 I156V/N221S/V284A limits assumed): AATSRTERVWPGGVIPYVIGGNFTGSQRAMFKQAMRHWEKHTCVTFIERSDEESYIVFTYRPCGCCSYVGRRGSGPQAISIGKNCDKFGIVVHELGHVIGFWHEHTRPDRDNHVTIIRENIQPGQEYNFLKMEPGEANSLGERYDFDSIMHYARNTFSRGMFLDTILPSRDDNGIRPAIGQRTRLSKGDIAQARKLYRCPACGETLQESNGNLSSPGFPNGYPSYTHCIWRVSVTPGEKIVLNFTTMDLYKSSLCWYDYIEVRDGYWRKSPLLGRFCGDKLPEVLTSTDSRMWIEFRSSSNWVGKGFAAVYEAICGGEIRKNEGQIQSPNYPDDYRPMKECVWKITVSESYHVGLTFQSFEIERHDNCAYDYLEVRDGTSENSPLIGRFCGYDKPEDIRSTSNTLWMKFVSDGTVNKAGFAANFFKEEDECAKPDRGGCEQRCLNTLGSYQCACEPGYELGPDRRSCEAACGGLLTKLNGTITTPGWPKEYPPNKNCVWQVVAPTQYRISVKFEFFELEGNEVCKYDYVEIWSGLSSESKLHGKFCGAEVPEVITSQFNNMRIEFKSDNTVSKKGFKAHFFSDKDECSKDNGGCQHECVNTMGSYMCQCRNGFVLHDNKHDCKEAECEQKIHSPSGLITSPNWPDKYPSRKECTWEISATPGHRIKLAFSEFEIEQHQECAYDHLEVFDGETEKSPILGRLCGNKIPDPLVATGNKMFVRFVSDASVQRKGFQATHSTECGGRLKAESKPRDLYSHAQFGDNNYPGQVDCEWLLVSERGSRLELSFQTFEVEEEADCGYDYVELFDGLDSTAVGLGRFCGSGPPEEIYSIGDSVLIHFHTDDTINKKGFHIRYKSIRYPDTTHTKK

| Compound | IC50 [1] [µM] | IC50 [2] [nM] | IC50 [3] [nM] | IC50 [4] [nM] | IC50 [5] [nM] |
| --- | --- | --- | --- | --- | --- |
| CCCCC[C@@H](C(=O)NCNC(=O)c1ccc(-c2ccc(C(=O)O)c(CC(=O)O)c2)o1)[C@@H](CC)N(O)C=O | < 3.98 | < 794 | < 126 | < 200 | < 398 |
| CCCCC[C@H](CN(O)C=O)C(=O)NCNC(=O)c1ccc(-c2cccc(SCC)c2)o1 | < 3.98 | < 794 | < 126 | < 200 | < 398 |
| CCCCC[C@@H](C(=O)NCNC(=O)c1ccc(-c2ccc(C(=O)N[C@@H](CC(=O)O)C(=O)O)c(C)c2)o1)[C@@H](CC)N(O)C=O | < 3.98 | < 794 | < 126 | < 200 | < 398 |
| CCCCC[C@@H](C(=O)NCNC(=O)c1ccc(-c2cc(OCC(=O)O)cc(C(=O)N[C@@H](CC(=O)O)C(=O)O)c2)o1)[C@@H](CC)N(O)C=O | < 3.98 | < 794 | < 126 | < 200 | < 398 |
| CCCCC[C@H](CN(O)C=O)C(=O)NCNC(=O)c1ccc(-c2cccc([N+](=O)[O-])c2)o1 | < 3.98 | < 794 | < 126 | < 200 | < 398 |
| CCCCC[C@H](CN(O)C=O)C(=O)NCNC(=O)c1ccc(-c2cccc(OCC(F)F)c2)o1 | < 3.98 | < 794 | < 126 | < 200 | < 398 |
| CCCCC[C@@H](C(=O)NCNC(=O)c1ccc(-c2ccc(C(=O)O)c(C(=O)O)c2)o1)[C@@H](CC)N(O)C=O | < 3.98 | < 794 | < 126 | < 200 | < 398 |
| CCCCC[C@@H](C(=O)NCNC(=O)C1CCC(c2cc(OCC)cc(P(=O)(O)O)c2)O1)[C@@H](CC)N(O)C=O (stereo not given in full) | < 3.98 | < 794 | < 126 | < 200 | < 398 |
| CCCCC[C@@H](C(=O)NCNC(=O)c1ccc(-c2cc(OCC)cc(C(=O)NCP(=O)(O)O)c2)o1)[C@@H](CC)N(O)C=O | < 3.98 | < 794 | < 126 | < 200 | < 398 |
| CCOc1cc(C(=O)O)c(O)c(-c2ccc(C(=O)NCNC(=O)[C@H](CCc3ccccc3)[C@@H](CC)N(O)C=O)o2)c1 | < 3.98 | < 794 | < 126 | < 200 | < 398 |
| CCCCC[C@H](CN(O)C=O)C(=O)NCNC(=O)c1ccc(-c2cccc(P(=O)(O)O)c2)o1 | < 3.98 | < 794 | < 126 | < 200 | < 398 |
| CCCCC[C@@H](C(=O)NCNC(=O)c1ccc(-c2ccc(C(=O)N[C@@H](CC(=O)O)C(=O)O)cc2)o1)[C@@H](CC)N(O)C=O | < 3.98 | < 794 | < 126 | < 200 | < 398 |
| CCOc1cc(-c2ccc(C(=O)NCNC(=O)[C@H](CCc3ccc4ccccc4c3)[C@@H](CC)N(O)C=O)o2)ccc1C(=O)N[C@@H](CC(=O)O)C(=O)O | < 3.98 | < 794 | < 126 | < 200 | < 398 |
| CC[C@H]([C@@H](CCc1ccc(F)cc1F)C(=O)NCNC(=O)c1ccc(-c2cc(OCC(=O)O)cc(C(=O)O)c2O)o1)N(O)C=O | < 3.98 | < 794 | < 126 | < 200 | < 398 |
| CCCCC[C@H](CN(O)C=O)C(=O)NCNC(=O)c1ccc(-c2cccc(SC)c2)o1 | < 3.98 | < 794 | < 126 | < 200 | < 398 |
| CCCCC[C@@H](C(=O)NCNC(=O)c1ccc(-c2cc(OCC)cc(P(=O)(O)OC)c2)o1)[C@@H](CC)N(O)C=O | < 3.98 | < 794 | < 126 | < 200 | < 398 |
| CCCCC[C@H](CN(O)C=O)C(=O)NCNC(=O)c1ccc(-c2ccc3cnn(C)c3c2)o1 | < 3.98 | < 794 | < 126 | < 200 | < 398 |
